22 molecules from patent US8415272B2, “Quinoline derivatives and their use as fungicides” (Syngenta Crop Protection LLC, priority 2008, dated 2013) can be followed below.

In data set [1] the test system is Botrytis cinerea. As to the kind of experiment: Leaf disk assay, Botrytis cinerea (grey mould) on bean, preventive. It is filed as in vivo. The settings on record: foliar, 96 h, bean leaf disks, assessed four days after inoculation, read-out: control of fungal infection, Botrytis cinerea.
Data set [2] has as its system Puccinia recondita f.sp. tritici. As to the kind of experiment: Leaf disk assay, Puccinia recondita f.sp. tritici (wheat brown rust), preventive. Type of data set: in vivo. The following applies: foliar, 216 h, wheat leaf segments, assessed nine days after inoculation, read-out: control of fungal infection, Puccinia recondita f.sp. tritici.
Data set [3] relates to Plasmopara viticola. As to the kind of experiment: Leaf disk assay, Plasmopara viticola (downy mildew of grapevine), preventive. The settings on record: foliar, 168 h, grapevine leaf disks, assessed seven days after inoculation, read-out: control of fungal infection, Plasmopara viticola. Type of data set: in vivo.
The subject of data set [4] is Septoria tritici. As to the kind of experiment: Growth inhibition in nutrient broth, Septoria tritici (leaf blotch), photometric. It is filed as cell-based. The settings on record: Zymoseptoria tritici, PDB broth, 24 C, 72 hrs, read-out: control of fungal infection, Septoria tritici.
In data set [5] the test system is Pythium ultimum. As to the kind of experiment: Growth inhibition in potato dextrose broth, Pythium ultimum (damping off), photometric. It is filed as cell-based. The settings on record: Globisporangium ultimum, 24° C., 48 hours, read-out: control of fungal infection, Pythium ultimum. A digest of the protocol: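 Growth inhibition was read photometrically at 48 hours after incubation at 24° C. Test compound was diluted from DMSO to 20 ppm in water and combined with potato dextrose broth seeded with Pythium ultimum mycelial fragments.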

The subject of data set [6] is Septoria nodorum. As to the kind of experiment: Leaf disk assay, Septoria nodorum (wheat glume blotch), preventive. It is filed as in vivo. The settings on record: Parastagonospora nodorum, foliar, 96 h, wheat leaf segments, assessed four days after inoculation, read-out: control of fungal infection, Septoria nodorum.
Data set [7] has as its system Fusarium culmorum. As to the kind of experiment: Growth inhibition in nutrient broth, Fusarium culmorum (root rot), photometric. The following applies: 48 h, read-out: control of fungal infection, Fusarium culmorum. It is filed as cell-based. An outline of the steps: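 Fusarium culmorum conidia in potato dextrose broth were added to compounds in DMSO. Plates were incubated at 24 C for 48 hrs, with growth inhibition read photometrically. […]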

For data set [8], the system named is Phytophthora infestans. As to the kind of experiment: whole plant or invertebrate. The settings on record: in Solanum lycopersicum, foliar, 96 h, read-out: control of fungal infection, Phytophthora infestans. It is filed as in vivo.
For data set [9], the system named is Pyrenophora teres. The experiment in a line: Leaf disk assay, Pyrenophora teres (barley net blotch), preventive. It is filed as in vivo. The settings on record: foliar, 96 h, barley leaf segments, assessed four days after inoculation, read-out: control of fungal infection, Pyrenophora teres. A digest of the protocol: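 Barley leaf segments on agar were sprayed with compound at 200 ppm (from DMSO stock diluted in water) and dried for 12-24 h before inoculation with a Pyrenophora teres spore suspension. Preventive fungicidal activity was scored 4 days after inoculation.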

Data set [10] concerns Erysiphe graminis f.sp. tritici. As to the kind of experiment: Leaf disk assay, Erysiphe graminis f.sp. tritici (wheat powdery mildew), preventive. Type of data set: in vivo. The following applies: Blumeria graminis, foliar, 96 h, wheat leaf segments, assessed four days after inoculation, read-out: control of fungal infection, Erysiphe graminis f.sp. tritici. An outline of the steps:
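Preventive protocol: compound at 200 ppm in water (from DMSO) sprayed onto wheat leaf segments on agar, dried 12–24 h, then spore-inoculated. Fungicidal activity was assessed four days post-inoculation.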

Data set [11] deals with Pyricularia oryzae. The experiment in a line: whole plant or invertebrate. It is filed as in vivo. The settings on record: foliar, 96 h, read-out: control of fungal infection, Pyricularia oryzae.

Each structure is given as a SMILES string.

In turn, `C#Cc1cnc2ccc(OC(SC)C(=O)NC(C)(C#C)CO)cc2c1` (centres unmarked) [Compound 160, 2-(3-ethynyl-quinolin-6-yloxy)-N-(1-hydroxymethyl-1-methylprop-2-ynyl)-2-methylsulfanyl-acetamide] came in with a melting point of 149 to 150 °C.
Still for that read-out and setting: under `C#Cc1cnc2cc(F)c(OC(SC)C(=O)NC(C)(C#N)CO)cc2c1` (centres unmarked) [Compound 174, N-(1-Cyano-2-hydroxy-1-methyl-ethyl)-2-(3-ethynyl-7-fluoro-quinolin-6-yloxy)-2-methylsulfanyl-acetamide] stands 80 to 83 °C.
`C#Cc1cnc2ccc(OC(SC)C(=O)N(O)C(C)(C)C)cc2c1` (centres unmarked) [Compound 147, N-tert-Butyl-2-(3-ethynyl-quinolin-6-yloxy)-N-hydroxy-2-methylsulfanyl-acetamide] registered a melting point of 164 °C.
On to `C#Cc1cnc2c(Cl)cc(OC(SC)C(=O)NC(C)(C)C#CC)cc2c1` (centres unmarked) [Example 20], for which the pest or weed control at 200 ppm in data set [1], in data set [2], in data set [3], in data set [6], in data set [8] and in data set [9] was at least 60% in each case. In addition, the pest or weed control at 200 ppm in [10] was at least 60%. Moreover, the inhibition of growth at 60 ppm in data set [4] and in data set [7] was at least 60% each time. In addition, the inhibition of growth at 20 ppm in [5] is at least 60%.
Consider `C#Cc1cnc2c(C)cc(OC(SC)C(=O)NC(C)(C)C#CCOC)cc2c1` (centres unmarked) [Example 9], for which the pest or weed control at 200 ppm in [2], in [3], in data set [6], in data set [11], in data set [8] and in data set [10] was at least 60% throughout. Further, the inhibition of growth at 60 ppm in [4] and in data set [7] was at least 60% in each case. Also, the inhibition of growth at 20 ppm in data set [5] is at least 60%.
In the case of `C#Cc1cnc2cc(F)c(OC(SC)C(=O)NC(C)(C)C#CCOC)cc2c1` (centres unmarked) [Example 66], the pest or weed control at 200 ppm in [1], in [2], in data set [3], in [6], in [8] and in [9] was at least 60% in each case. Besides, the pest or weed control at 200 ppm in data set [10] is at least 60%. For the same molecule, the inhibition of growth at 60 ppm in [4] and in data set [7] was at least 60% in each case. The inhibition of growth at 20 ppm in data set [5] was at least 60%.
With `C#Cc1cnc2cc(F)c(OC(SC)C(=O)NC(C)(C#N)COC)cc2c1` (centres unmarked) [Example 6], the pest or weed control at 200 ppm in [2], in data set [3], in data set [6], in data set [11], in [8] and in [10] was at least 60% throughout. In addition, the inhibition of growth at 60 ppm in data set [4] is at least 60%. For the same molecule, the inhibition of growth at 20 ppm in [5] was at least 60%.
For `C#Cc1cnc2ccc(OC(SC)C(=O)NC3COC3)cc2c1` (centres unmarked) [Compound 178, 2-(3-Ethynyl-quinolin-6-yloxy)-2-methylsulfanyl-N-oxetan-3-yl-acetamide], the melting point is 98 to 100 °C.
Take `C#CCOCC#CC(C)(C)NC(=O)C(Oc1cc(C)c2ncc(C#C)cc2c1)SC` (centres unmarked) [Example 10]: the pest or weed control at 200 ppm in [3], in data set [6], in data set [11], in data set [8] and in data set [10] was at least 60% each time. The inhibition of growth at 60 ppm in data set [4] and in [7] was at least 60% each time. For the same molecule, in data set [5], the inhibition of growth at 20 ppm was at least 60%.
Molecule `C#CCOCC(C)(COCC#C)NC(=O)C(Oc1ccc2ncc(C#C)cc2c1)SC` (centres unmarked) [Example 12c, 2-(3-ethynyl-quinolin-6-yloxy)-N-(1-methyl-2-prop-2-ynyloxy-1-prop-2-ynyloxymethyl-ethyl)-2-methylsulfanyl-acetamide] gave a melting point of 95 to 100 °C.
The same measure, in the same setting: the result for `C#Cc1cnc2ccc(OC(SC)C(=O)NC(C)(C#N)CO)cc2c1` (centres unmarked) [Example 12d, N-(1-cyano-2-hydroxy-1-methyl-ethyl)-2-(3-ethynyl-quinolin-6-yloxy)-2-methylsulfanyl-acetamide] reads 78 to 80 °C; that for `C#Cc1cnc2c(F)cc(OC(SC)C(=O)NC(C)C)cc2c1` (centres unmarked) [Compound 222, 2-(3-Ethynyl-8-fluoro-quinolin-6-yloxy)-N-isopropyl-2-methylsulfanyl-acetamide], 135 to 136 °C.
Consider `C#Cc1cnc2c(C)cc(OC(SC)C(=O)NC(C)(C#N)COC)cc2c1` (centres unmarked) [Example 12], for which the pest or weed control at 200 ppm in data set [2], in data set [3], in data set [6], in [11], in [8] and in [10] was at least 60% in each case. Further, in data set [4], the inhibition of growth at 60 ppm was at least 60%. In [5], the inhibition of growth at 20 ppm is at least 60%.
In turn, `C#Cc1cnc2ccc(OC(SC)C(=O)NC3CSC3)cc2c1` (centres unmarked) [Compound 223, 2-(3-Ethynyl-quinolin-6-yloxy)-2-methylsulfanyl-N-thietan-3-yl-acetamide] registered a melting point of 150 to 152 °C.
For `C#Cc1cnc2c(C)cc(OC(SC)C(=O)NC(C)(C)CO)cc2c1` (centres unmarked) [Example 15], the pest or weed control at 200 ppm in data set [3], in data set [6], in data set [11] and in [8] was at least 60% each time. Further, in data set [4], the inhibition of growth at 60 ppm was at least 60%. Moreover, the inhibition of growth at 20 ppm in data set [5] was at least 60%.
`C#Cc1cnc2ccc(OC(SC)C(=O)NC(C)(C#C)CO)cc2c1` (centres unmarked) [Compound 173, 2-(3-Ethynyl-quinolin-6-yloxy)-N-(1-hydroxymethyl-1-methyl-prop-2-ynyl)-2-methylsulfanyl-acetamide] had a melting point of 150 to 155 °C.
Regarding `C#Cc1cnc2c(Cl)cc(OC(SC)C(=O)NC3(C)CCC3)cc2c1` (centres unmarked) [Compound 203, 2-(8-Chloro-3-ethynyl-quinolin-6-yloxy)-N-(1-methyl-cyclobutyl)-2-methylsulfanyl-acetamide], the melting point fell in the range of 121 to 123 °C.
As to `C#CCOCC(C)(C)NC(=O)C(Oc1ccc2ncc(C#C)cc2c1)SC` (centres unmarked) [Example 30], the pest or weed control at 200 ppm in data set [1], in data set [2], in [3], in data set [6], in [8] and in data set [9] was at least 60% each time. In addition, the pest or weed control at 200 ppm in data set [10] is at least 60%. Moreover, the inhibition of growth at 60 ppm in [4] and in data set [7] was at least 60% each time. Further, the inhibition of growth at 20 ppm in [5] was at least 60%.
As for `C#Cc1cnc2ccc(OC(SC)C(=O)NC3(C)CSC3)cc2c1` (centres unmarked) [Compound 224, 2-(3-Ethynyl-quinolin-6-yloxy)-2-methylsulfanyl-N-(3-methyl-thietan-3-yl)-acetamide], the melting point fell in the range of 132 to 134 °C.
The same measure, in the same setting: the result for `C#Cc1cnc2ccc(OC(SC)C(=O)NC3(C)COC3)cc2c1` (centres unmarked) [Compound 186, 2-(3-Ethynyl-quinolin-6-yloxy)-N-(3-methyl-oxetan-3-yl)-2-methylsulfanyl-acetamide] reads 61 to 65 °C.
`C#CCC(C)(C)NC(=O)C(Oc1cc(Cl)c2ncc(C#C)cc2c1)SC` (centres unmarked) [Example 75]: the pest or weed control at 200 ppm in data set [1], in data set [2], in [3], in data set [6], in data set [8] and in [9] was at least 60% in each case. Also, the pest or weed control at 200 ppm in data set [10] is at least 60%. Moreover, the inhibition of growth at 60 ppm in [4] and in data set [7] was at least 60% each time. In addition, the inhibition of growth at 20 ppm in [5] was at least 60%.
For the molecule `C#Cc1cnc2ccc(OC(SC)C(=O)NC(C)(C)CO)cc2c1` (centres unmarked) [Compound 168, 2-(3-ethynyl-quinolin-6-yloxy)-N-(2-hydroxy-1,1-dimethyl-ethyl)-2-methylsulfanyl-acetamide], the melting point lay in the range of 149 to 151 °C.
